The source of these data is article PMC4706532, “Diarylthiophenes as inhibitors of the pore-forming protein perforin” (Bioorganic & Medicinal Chemistry Letters, 2016).

SMILES strings stand for the structures. Values after ≈ are worked out from the molar mass of the structure shown.

In data set [1] the test system is perforin. On the set-up: method as in earlier work. The note with it: compound concentration 100 µM; cited from earlier work.
Data set [2] addresses T1, recombinant perforin (Mus musculus, UniProt P10820).
T1 sequence (P10820 21-554): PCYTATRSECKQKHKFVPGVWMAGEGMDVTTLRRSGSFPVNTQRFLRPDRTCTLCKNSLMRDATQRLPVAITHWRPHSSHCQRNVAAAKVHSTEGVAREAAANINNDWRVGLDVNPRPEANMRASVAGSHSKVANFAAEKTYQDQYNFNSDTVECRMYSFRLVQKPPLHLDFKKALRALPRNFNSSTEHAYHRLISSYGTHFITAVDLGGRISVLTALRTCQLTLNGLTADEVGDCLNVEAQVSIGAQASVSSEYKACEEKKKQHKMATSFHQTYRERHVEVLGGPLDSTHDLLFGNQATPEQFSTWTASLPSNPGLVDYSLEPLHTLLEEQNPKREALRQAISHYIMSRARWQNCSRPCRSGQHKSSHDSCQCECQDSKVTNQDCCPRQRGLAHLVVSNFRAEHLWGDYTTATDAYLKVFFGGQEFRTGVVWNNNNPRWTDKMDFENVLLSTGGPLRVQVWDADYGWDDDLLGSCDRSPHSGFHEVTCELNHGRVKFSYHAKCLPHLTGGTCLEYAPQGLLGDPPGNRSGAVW
On the set-up: method as in PMID 22244072. The note with it: 2 vs HTS hit 1; cited from earlier work.

For data set [3], the system named is perforin delivered by KHYG-1 NK cells. The experiment in a line: KHYG-1 cytotoxicity assay: lysis of K562 target cells by KHYG-1 NK cells (51Cr release). As to conditions: for inhibition at 20 µM: Homo sapiens, KHYG-1 NK, read-out: KHYG-1 inhibition (% at 20 μM), compound 20 μM; for Activity against perforin delivered by whole KHYG-1 NK cells (in words): whole human NK cells, K562 targets. The data set is classed as cell-based, human. The procedure:
(§1) The compounds were then evaluated for their ability to block the effect of perforin delivered by whole KHYG-1 NK cells (Table 2). Employing whole NK cells is a more rigorous model of conditions in vivo than the use of isolated recombinant protein since effector cell identification of the labelled target cell and formation of an immune synapse are required for perforin release. […] After co-incubation of inhibitor with KHYG-1 NK cells in medium for 30 min at room temperature, ^51Cr-labelled K562 leukaemia target cells were added and cell lysis evaluated after 4 h incubation at 37 °C by measuring ^51Cr release. […] Viable and dead cells were counted and percent viability calculated based on total cell count (for further details see Supplementary data). […] For the purposes of this work, compounds are classified as toxic if NK cell viability falls below 70%. This is due to the importance of CTLs and NK cells in the overall immunological response which means that it is essential that any pharmacological intervention allows rapid recovery of these cytotoxic effector cells for normal immunological function.
KHYG-1 cells were washed and re-suspended in RPMI + 0.1% BSA at 4 × 10^5 cells/mL, and an amount of 50 μL of KHYG-1 cells was dispensed to each well of a 96-well V-bottom plate. RPMI (50 μL) + 0.1% BSA or 10% (final concentration) of serum was added to each well. Then test compounds were added to KHYG-1 cells at various concentrations up to 20 μM and incubated at room temperature for […]. 1 × 10^6 K562 target cells were labelled with 75 μCi ^51Cr in 200 μL of RPMI for 90 min at 37 °C. Cells were washed as described above and re-suspended in 5 mL of RPMI + 0.1% BSA. An amount of 50 μL of ^51Cr labelled K562 leukaemia target cells was added to each well of the KHYG-1 plate (effector/target 2:1) and incubated at 37 °C for 4 h. ^51Cr release was assayed using a Skatron harvesting press and radioactivity estimated on a Wallac Wizard 1470 automatic γ counter (Turku, Finland). The percentage of specific cytotoxicity was calculated using the following formula:
% specific lysis = […]
(maximum release - spontaneous release)
and expressed as the mean of triplicate assays ± standard error of the mean.

A short description of data set [4]: Toxicity to KHYG-1 NK cells (Trypan blue exclusion). As to conditions: human. Here is the method:
as §1
The toxicity assay was carried out in exactly the same manner as the killing assay above, but instead of adding the labelled K562 target cells, 100 μL of RPMI 0.1% BSA was added. Cells were incubated for 4 h at 37 °C and then washed ×3 in RPMI + 0.1% BSA. Cells were then re-suspended in 200 μL of complete medium and incubated for 18−24 h at 37 °C. Trypan blue was added to each well. Viable (clear) cells and total (clear + blue) cells were counted, and the percentage of viable cells was calculated compared to DMSO treated cell control (% viability).

Data set [5] is described as follows: Plasma stability, mouse plasma. In kind it is in vitro ADME. The note with it: % parent remaining at 24 h, 37 °C. The procedure:
(§2) Preliminary stability studies were carried out by incubation in human or mouse plasma at 37 °C with the percentage parent remaining measured at 24 h (Table 2). […] In mouse plasma the ratio of open to closed is 50:50%, while in human plasma this shifts to 90:10 due to the strong affinity of human serum albumin for the ring-opened form.[20] It is likely that the same phenomenon is operating in the present case and while not necessarily an issue for mouse studies, will need to be addressed in future work.
(§3) Incubation method - Mouse (CD-1, male) and human (pooled) plasma pH was adjusted to 7.4 with either 1M phosphoric acid or sodium hydroxide. Plasma was spiked with 100 uM of test compounds and divided into two parts; one part was immediately transferred to -80 °C (control), and the second part was incubated at 37 °C at 24 h.
(§4) At the end of the study duration, samples were transferred to -80 °C until ready to analyse by HPLC-DAD. On the day of analysis, control and incubated samples were thawed on wet ice and mixed.
(§5) Sample treatment for HPLC - 20 uL of samples were mixed with 80 uL (1:4 v/v) ice cold acetonitrile to precipitate the plasma proteins, centrifuged at 13,000 rpm for 5 min to obtain the clear supernatant. The supernatant was diluted with 0.01% formic acid– water (1:2 v/v) and 50 uL was injected onto the HPLC system (Agilent).
(§6) Calculation: The % loss was calculated based on peak area using the following formula: (peak area time “0”- peak area time “24h”)/peak area time “0” multiplied by 100. % Remaining = 100 - % loss.

A short description of data set [6]: Plasma stability, human plasma. The data set is classed as in vitro ADME. As to conditions: % parent remaining at 24 h, 37 °C. The procedure:
as §2, §3, §4, §5, §6

Data set [7] in a line: Solubility in water. The note with it: water.
[8] abbreviates: perforin-induced lysis of K562 target cells co-incubated with KHYG-1 human NK cells, vs untreated control.

On to `O=C1NC(=S)N/C1=C/c1ccc(-c2ccc3c(c2)COC3=O)o1` [Compound 1], for which the “Inhibition of perforin-mediated lysis of SRBC (in words)” value in data set [1] was “reproducibly inhibit”.

Turning to `O=C1NC(=S)N/C1=C/c1ccc(-c2ccc3c(c2)COC3=O)s1` [Compound 2], the “Fold improvement in inhibition of isolated perforin protein function over 1” value in data set [2] is given as around 8 fold.

`NC(=O)c1ccc(-c2ccc(-c3ccc4c(c3)COC4=O)s2)cc1` [Compound 23]: the inhibition at 20 µM in data set [3] (setting [8]) came to 60%. For the same molecule, the “KHYG-1 inhibition (% at 20 μM)” value in data set [3] (compound 20 μM, perforin-induced lysis of K562 target cells co-incubated with KHYG-1 human NK cells, vs untreated control, 20 µM) is 63%. The “Activity against perforin delivered by whole KHYG-1 NK cells (in words)” value (“Activity against perforin delivered” for short) in data set [3] is listed as “excellent activity”. In addition, the viability at 24 h, 20 µM in data set [4] amounted to 90%. In addition, the “Plasma stability (% at 24 h) Mouse” value in data set [5] came out at 75%. Moreover, in data set [6], the “Plasma stability (% at 24 h) Human” value is recorded as 46%.

As to `NC(=O)c1ccc(-c2ccc(-c3ccc4c(c3)COC4=O)s2)cc1O` [Compound 48], in data set [7], the solubility stood at 0.023 µg/mL (≈ 0.0655 µM). Moreover, the inhibition at 20 µM in data set [3] (setting [8]) was found to be 20%. In addition, the “Activity against perforin delivered” value in data set [3] is reported as “poor or no activity”. The molecule also registered a viability at 24 h, 20 µM in data set [4] of 92%. The “Plasma stability (% at 24 h) Mouse” value in data set [5] worked out at 75%. For the same molecule, the “Plasma stability (% at 24 h) Human” value in data set [6] is given as 49%.

For the molecule `O=C1OCc2cc(-c3ccc(-c4ccc(CO)cc4)s3)ccc21` [Compound 59], the inhibition at 20 µM in data set [3] (setting [8]) was 13%. Moreover, in data set [3], the “Activity against perforin delivered” value is “poor or no activity”. The viability at 24 h, 20 µM in data set [4] was determined as 79%. Also, the “Plasma stability (% at 24 h) Mouse” value in data set [5] came to 87%. Further, in data set [6], the “Plasma stability (% at 24 h) Human” value was 73%.

In the case of `NC(=O)c1ccc(-c2ccc(-c3ccc4c(c3)COC4=O)s2)cn1` [Compound 67], the solubility in data set [7] was determined as 0.204 µg/mL (≈ 0.606 µM). Moreover, the inhibition at 20 µM in data set [3] (setting [8]) turned out to be 80%. Moreover, the “Activity against perforin delivered” value in data set [3] is given as “excellent activity”. The same molecule displayed a viability at 24 h, 20 µM in data set [4] of 82%. Further, the “Plasma stability (% at 24 h) Mouse” value in data set [5] stood at 66%. Moreover, the “Plasma stability (% at 24 h) Human” value in data set [6] is given as 39%.

As a reminder, the inhibition is the relative decrease from the control value, in per cent. Broadly, the viability is a per cent measure of how many cells are alive, often set against a control. Low readings indicate a greater loss of cells, high ones better survival. As a reminder, the solubility is the dissolved amount per volume that the medium holds.
